How the values were obtained:
hERG channel = hERG channel (Homo sapiens (Human), UniProt Q12809); experiment: Evaluation of hERG current (whole-cell patch clamp); type: cell-based; details: 10 μM, application for 10 minutes, HEK293 cells, n = 3, average ± standard error
Description: Evaluation of hERG Current
A dimethyl sulfoxide (DMSO) solution of the test compound with a concentration 1000 times higher than the evaluation concentration (10 μM) was prepared, and a solution with a final application concentration was prepared by diluting the solution. The hERG current was measured by a whole-cell method using a patch clamp system, where a cover glass on which hERG channel-expressing human embryonic kidney (HEK) 293 cells were seeded was placed on a perfusion bath and a perfusion solution was caused to flow. The change in the hERG channel-derived current caused by a pulse protocol (holding potential of −80 mV, depolarization pulse of +20 mV for 1.9 seconds, repolarization pulse of −50 mV for 2 seconds, stimulated at intervals of 15 seconds) of data acquisition/analysis software, pCLAMP9 (Axon instruments. Inc.) was measured. The measurement conditions were a flow rate of about 1.5 mL/min and a temperature of about 33° C. Two wave forms immediately before applying the test compound and two wave forms immediately after the application for 10 minutes were analyzed, and the statistical analysis was performed. The value before the application of the test compound was regarded as 100%, and the change rate based on the value was determined.
In the table, Ex. No. means the Example number, and the change rate is the average±the standard error.

human CYP3A4 = human CYP3A4 (Homo sapiens (Human), UniProt P08684); experiment: Inhibitory effect on CYP3A4; type: in vitro ADME; details: 30-minute pre-incubation, Luciferin-IPA substrate; read-out: IC50 (μM), CYP3A4 inhibition
Sequence of human CYP3A4 (P08684 whole entry): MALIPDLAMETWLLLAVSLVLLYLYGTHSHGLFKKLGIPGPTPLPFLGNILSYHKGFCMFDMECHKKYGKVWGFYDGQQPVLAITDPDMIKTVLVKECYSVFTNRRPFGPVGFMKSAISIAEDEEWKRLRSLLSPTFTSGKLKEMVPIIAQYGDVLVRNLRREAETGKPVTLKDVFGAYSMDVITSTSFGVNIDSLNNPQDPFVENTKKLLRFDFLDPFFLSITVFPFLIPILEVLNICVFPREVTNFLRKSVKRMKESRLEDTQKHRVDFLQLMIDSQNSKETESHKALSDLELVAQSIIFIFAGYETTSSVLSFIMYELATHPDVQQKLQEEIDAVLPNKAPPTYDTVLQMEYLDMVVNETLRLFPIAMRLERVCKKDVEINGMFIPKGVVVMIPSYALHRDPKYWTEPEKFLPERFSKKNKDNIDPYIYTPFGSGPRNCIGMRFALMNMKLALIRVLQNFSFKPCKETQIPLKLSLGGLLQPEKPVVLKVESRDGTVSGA
Description: Inhibitory Effect on CYP3A4
Enzyme reaction was performed by incubating in a potassium phosphate buffer solution (pH 7.4) containing 1 nM to 20 μM test compound, 3.2 mM magnesium chloride, 0.2 pmol human CYP3A4 (BD Biosciences), 0.5 mM reduced nicotinamide adenine dinucleotide phosphate (NADPH) and 3 μM Luciferin-IPA (Promega) at 37° C. for 10 minutes. The volume of the reaction solution was 50 μL/well. The 30-minute pre-incubation group was incubated at 37° C. for 30 minutes before adding tire substrate, the Luciferin-IPA solution (12.5 μL/well). At the end of the enzyme reaction, 50 μL/well of a Luciferin detection reagent (Promega) was added to the wells, and the plate was left at room temperature for 20 minutes. Then, the emission intensities were measured with Infinite M1000 (TECAN). The enzyme activities (%) relative to the value of the group to which the test compound was not added were calculated.

[1] = system: cisplatin-induced retching and vomiting; experiment: Effect on cisplatin-induced acute and delayed emetic response; type: in vivo; details: ferret, 0.01 or 0.1 mg/kg iv
Description: The vertical axes show the number of retching and vomiting (Retches+Vomits) (the mean+standard error of 3 examples of control group, the mean+standard error of 3 examples of the group intravenously administered with 0.01 mg/kg, and the mean+standard error of 3 examples of the group intravenously administered with 0.1 mg/kg).
Effect on Cisplatin-Induced Acute and Delayed Emetic Response
The test compound solution was prepared by dissolving the test compound in a vehicle (a mixture of 50% N,N-dimetlylacetamide (Wako Pure Chemical Industries). 30% propylene glycol (Wako Pure Chemical Industries), 4% 2-hydroxypropy-β-cyclodextrin (Wako Pure Chemical Industries) and 16% distilled water). The vehicle only was administered to the control group.
Under anesthesia with isoflurane, 0.01 mg/kg or 0.1 mg/kg of the test compound was intravenously administered to a male ferret (Marshall BioResources Japan) from the jugular vein. Cisplatin in saline, which was heated to 40-50° C., was intraperitoneally administered at 5 mg/kg one hour after the drug administration.

NK1 receptor = NK1 receptor (Meriones unguiculatus (Mongolian jird) (Gerbillus unguiculatus), UniProt Q5DUB1); experiment: Effect on foot-tapping induced by NK1 receptor agonist GR73632; type: in vivo; details: male gerbil, 0.1 mg/kg iv, GR73632 after four hours
Sequence of NK1 receptor (Q5DUB1 whole entry): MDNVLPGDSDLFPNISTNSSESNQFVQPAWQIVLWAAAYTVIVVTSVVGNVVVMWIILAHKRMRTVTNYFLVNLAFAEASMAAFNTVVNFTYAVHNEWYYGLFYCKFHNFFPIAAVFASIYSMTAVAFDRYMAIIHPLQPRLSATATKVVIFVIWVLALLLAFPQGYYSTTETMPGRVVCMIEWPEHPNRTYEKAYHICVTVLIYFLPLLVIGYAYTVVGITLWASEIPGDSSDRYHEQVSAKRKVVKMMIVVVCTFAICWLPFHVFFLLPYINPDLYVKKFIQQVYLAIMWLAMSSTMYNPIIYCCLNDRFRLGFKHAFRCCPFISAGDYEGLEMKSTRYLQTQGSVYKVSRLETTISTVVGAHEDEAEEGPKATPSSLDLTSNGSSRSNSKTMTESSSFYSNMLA
Description: (1) Effect on Foot-Tapping
The test compound solution was prepared by dissolving the test compound in a vehicle (a mixture of 50% N,N-dimethylacetamide (Wako Pure Chemical Industries), 30% propylene glycol (Wako Pure Chemical Industries). 4% 2-hydroxypropyl-β-cyclodextrin (Wako Pure Chemical Industries) and 16% distilled water).
(§1) A male gerbil (Japan SLC) was anesthetized with isoflurane, and 0.1 mg/kg of a test compound was administered from the jugular vein. After four hours. GR73632 (5 pmol/5 μl saline), which is an NK1 receptor agonist, was administered into the cerebral ventricle at the part 1 mm lateral to and 4.5 mm below the bregma in the head, under anesthesia with isoflurane. After the administration, the gerbil was moved to an observation cage, and the foot-tapping period during 30 minutes after the recovery of the righting reflex was measured. The foot-tapping inhibition rate (%) of each test compound was calculated by the following equation. Foot-tapping inhibition rate (%)−{1−(Fool-tapping period when test compound was administered)/(Foot-tapping period when solvent was administered)}×100 (2) Measurement of Drug Concentrations
(§2) In the table, Ex. No. means the Example number. Inhibition (%) is the loot-tapping inhibition rate, and Cone. (nM) is the drug concentration in the brain.

[2] = Measurement of drug concentrations in the brain after foot-tapping; type: in vivo; details: male gerbil, 0.1 mg/kg iv, after foot-tapping was finished
Description: as §1
After foot-tapping was finished, laparotomy was performed immediately under anesthesia with ether, and a blood sample was taken from the abdominal vena cava. At the same lime, the brain was extracted. Through a quantitative analysis using liquid chromatography-mass spectrometry (LC/MS), the concentrations of the test compound in the plasma and the brain were measured.
as §2

Sequence of hERG channel (Q12809 whole entry): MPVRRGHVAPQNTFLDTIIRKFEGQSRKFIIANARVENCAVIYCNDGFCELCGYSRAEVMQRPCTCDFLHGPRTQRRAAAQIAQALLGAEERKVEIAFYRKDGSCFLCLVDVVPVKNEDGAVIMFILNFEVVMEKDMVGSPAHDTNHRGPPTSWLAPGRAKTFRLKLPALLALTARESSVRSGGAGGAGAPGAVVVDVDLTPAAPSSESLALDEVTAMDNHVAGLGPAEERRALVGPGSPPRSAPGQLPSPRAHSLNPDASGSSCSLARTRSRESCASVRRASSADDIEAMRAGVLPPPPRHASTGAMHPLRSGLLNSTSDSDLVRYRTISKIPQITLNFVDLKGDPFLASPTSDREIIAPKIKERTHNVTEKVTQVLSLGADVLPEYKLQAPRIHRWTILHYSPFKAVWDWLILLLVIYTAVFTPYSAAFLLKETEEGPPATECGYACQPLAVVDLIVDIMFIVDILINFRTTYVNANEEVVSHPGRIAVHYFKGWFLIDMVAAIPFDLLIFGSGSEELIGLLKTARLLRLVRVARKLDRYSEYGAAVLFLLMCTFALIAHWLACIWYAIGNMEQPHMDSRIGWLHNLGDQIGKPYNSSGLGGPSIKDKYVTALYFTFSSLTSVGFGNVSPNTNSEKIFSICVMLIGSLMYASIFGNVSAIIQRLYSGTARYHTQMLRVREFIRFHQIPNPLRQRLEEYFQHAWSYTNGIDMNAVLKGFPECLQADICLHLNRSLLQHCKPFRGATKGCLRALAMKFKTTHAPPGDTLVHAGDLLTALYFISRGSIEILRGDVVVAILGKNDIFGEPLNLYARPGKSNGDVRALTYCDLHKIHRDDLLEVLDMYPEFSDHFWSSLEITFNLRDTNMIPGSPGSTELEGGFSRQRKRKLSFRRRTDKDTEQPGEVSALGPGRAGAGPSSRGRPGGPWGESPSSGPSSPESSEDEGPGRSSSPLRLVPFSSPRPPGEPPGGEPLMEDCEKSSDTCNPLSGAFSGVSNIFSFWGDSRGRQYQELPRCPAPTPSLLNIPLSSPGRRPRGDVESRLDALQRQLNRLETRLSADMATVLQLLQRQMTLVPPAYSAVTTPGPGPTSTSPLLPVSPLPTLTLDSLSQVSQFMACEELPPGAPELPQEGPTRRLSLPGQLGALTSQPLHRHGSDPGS

| Structure (SMILES) | hERG current change rate % (value before application = 100%) (hERG channel) | IC50 (human CYP3A4) | number of retching and vomiting, delayed phase ([1]; 24 hours to 72 hours after cisplatin 5 mg/kg ip) | number of retching and vomiting, acute phase ([1]; up to 24 hours after cisplatin 5 mg/kg ip) | Inhibition (%), foot-tapping inhibition rate (NK1 receptor) | Conc. (nM), drug concentration in the brain [2] |
| --- | --- | --- | --- | --- | --- | --- |
| Cc1cc(F)ccc1-c1cc([C@H]2CC[C@H](CC(=O)O)CC2)ncc1N(C)C(=O)C(C)(C)c1cc(C(F)(F)F)cc(C(F)(F)F)c1 [Example 13, trans-{4-[5-{[2-(3,5-Bistrifluoromethylphenyl)-2-methylpropionyl]methylamino}-4-(4-fluoro-2-methylphenyl)pyridin-2-yl]cyclohexyl}acetic acid] | 81.1 ± 5.6% | 8.2 µM | the inhibition of the number of retching and vomiting was observed | the inhibition of the number of retching and vomiting was observed | 100% | 51 nM |
| Cc1cc(F)ccc1-c1cc(C2CCC3(CC2)CC3C(=O)O)ncc1N(C)C(=O)C(C)(C)c1cc(C(F)(F)F)cc(C(F)(F)F)c1 (stereo not shown) [Example 7, 6-[5-{[2-(3,5-Bistrifluoromethylphenyl)-2-methylpropionyl]methylamino}-4-(4-fluoro-2-methylphenyl)pyridin-2-yl]spiro[2.5]octane-1-carboxylic Acid] | – | 11 µM | – | – | 90% | 24 nM |
| Cc1ccccc1-c1cc(C2CCC(CC(=O)O)CC2)nc(C#N)c1N(C)C(=O)C(C)(C)c1cc(C(F)(F)F)cc(C(F)(F)F)c1 (stereo not shown) [Example 16, [4-(5-{[2-(3,5-Bistrifluoromethylphenyl)-2-methylpropionyl]methylamino}-6-cyano-4-ortho-tolylpyridin-2-yl)cyclohexyl]acetic Acid] | – | 3.1 µM | – | – | 93% | 64 nM |
| Cc1cc(F)ccc1-c1cc(C2CCC(C(=O)O)CC2)ncc1N(C)C(=O)C(C)(C)c1cc(C(F)(F)F)cc(C(F)(F)F)c1 (stereo not shown) [Example 1, 4-[5-{[2-(3,5-Bistrifluoromethylphenyl)-2-methylpropionyl]methylamino}-4-(4-fluoro-2-methylphenyl)pyridin-2-yl]cyclohexanecarboxylic Acid] | – | 13 µM | – | – | 98% | 24 nM |
| Cc1cc(F)ccc1-c1cc([C@H]2CC[C@H](C(C)(C)C(=O)O)CC2)ncc1N(C)C(=O)C(C)(C)c1cc(C(F)(F)F)cc(C(F)(F)F)c1 [Example 11, trans-2-{4-[5-{[2-(3,5-Bistrifluoromethylphenyl)-2-methylpropionyl]methylamino}-4-(4-fluoro-2-methylphenyl)pyridin-2-yl]cyclohexyl}-2-methylpropionic Acid] | – | 2.7 µM | – | – | 95% | 72 nM |
| Cc1cc(F)ccc1-c1cc(C2(C)CCCC(CC(=O)O)C2)ncc1N(C)C(=O)C(C)(C)c1cc(C(F)(F)F)cc(C(F)(F)F)c1 (stereo not shown) [Example 4, {3-[5-{[2-(3,5-Bistrifluoromethylphenyl)-2-methylpropionyl]methylamino}-4-(4-fluoro-2-methylphenyl)pyridin-2-yl]-3-methylcyclohexyl}acetic Acid] | – | 7.1 µM | – | – | 77% | 35 nM |
| Cc1cc(F)ccc1-c1cc(C2CCCC(CC(=O)O)C2)ncc1N(C)C(=O)C(C)(C)c1cc(C(F)(F)F)cc(C(F)(F)F)c1 (stereo not shown) [Example 3, {3-[5-{[2-(3,5-Bistrifluoromethylphenyl)-2-methylpropionyl]methylamino}-4-(4-fluoro-2-methylphenyl)pyridin-2-yl]cyclohexyl}acetic Acid] | – | 9.4 µM | – | – | 100% | 48 nM |
| Cc1cc(F)ccc1-c1cc(C2CCC(CC(=O)O)CC2)nc(C#N)c1N(C)C(=O)C(C)(C)c1cc(C(F)(F)F)cc(C(F)(F)F)c1 (stereo not shown) [Example 8, {4-[5-{[2-(3,5-Bistrifluoromethylphenyl)-2-methylpropionyl]methylamino}-6-cyano-4-(4-fluoro-2-methylphenyl)pyridin-2-yl]cyclohexyl}acetic Acid] | – | 6.1 µM | – | – | 100% | 59 nM |
| Cc1cc(F)ccc1-c1cc([C@H]2CC[C@@H](CC(=O)O)CC2)nc(C#N)c1N(C)C(=O)C(C)(C)c1cc(C(F)(F)F)cc(C(F)(F)F)c1 [Example 21, cis-{4-[5-{[2-(3,5-bistrifluoromethylphenyl)-2-methylpropionyl]methylamino}-6-cyano-4-(4-fluoro-2-methylphenyl)pyridin-2-yl]cyclohexyl}acetic acid] | – | 4.2 µM | – | – | 100% | 92 nM |
| Cc1cc(F)ccc1-c1cc(C2CCC(C(C)C(=O)O)CC2)ncc1N(C)C(=O)C(C)(C)c1cc(C(F)(F)F)cc(C(F)(F)F)c1 (stereo not shown) [Example 10, 2-{4-[5-{[2-(3,5-Bistrifluoromethylphenyl)-2-methylpropionyl]methylamino}-4-(4-fluoro-2-methylphenyl)pyridin-2-yl]cyclohexyl}propionic Acid] | – | 11 µM | – | – | 97% | 42 nM |
| Cc1cc(F)ccc1-c1cc([C@H]2CC[C@@H](CC(=O)O)CC2)ncc1N(C)C(=O)C(C)(C)c1cc(C(F)(F)F)cc(C(F)(F)F)c1 [Example 14, cis-{4-[5-{[2-(3,5-bistrifluoromethylphenyl)-2-methylpropionyl]methylamino}-4-(4-fluoro-2-methylphenyl)pyridin-2-yl]cyclohexyl}acetic acid] | 80.3 ± 3.9% | 7.5 µM | – | – | 99% | 40 nM |
| Cc1ccccc1-c1cc(C2CCC(CC(=O)O)CC2)ncc1N(C)C(=O)C(C)(C)c1cc(C(F)(F)F)cc(C(F)(F)F)c1 (stereo not shown) [Example 9, {4-[5-{[2-(3,5-Bistrifluoromethylphenyl)-2-methylpropionyl]methylamino}-4-ortho-tolylpyridine-yl]-cyclohexyl}acetic Acid] | – | 6.9 µM | – | – | 75% | 47 nM |
| Cc1cc(F)ccc1-c1cc([C@H]2CC[C@H](CC(=O)O)CC2)nc(C#N)c1N(C)C(=O)C(C)(C)c1cc(C(F)(F)F)cc(C(F)(F)F)c1 [Example 20, trans-{4-[5-{[2-(3,5-Bistrifluoromethylphenyl)-2-methylpropionyl]methylamino}-6-cyano--4-(4-fluoro-2-methylphenyl)-pyridin-2-yl]cyclohexyl}acetic acid] | – | 5.5 µM | – | – | 100% | 92 nM |
